Measured values published in patent US11110105B2, “Compounds, composition and uses thereof for treating cancer” (INSTITUT GUSTAVE ROUSSY, priority 2017, dated 2021).

Legend:
[1] = test system: B16F10 mouse melanoma cell line; assay: MTT assay on B16F10 cell line; format: cell-based; conditions: B16F10 WT cells, 15 μM or 35 μM
Procedure: (§1) RNA was extracted and qRT-PCR was performed with primers amplifying the unspliced (intron) and the spliced (exon) globin-SL8-intron RNA. Data are given as mean ±SEM of the ratio of 2^−ΔΔCt intron and 2^−ΔΔCt exon of at least three independent experiments. […] Data are express as mean ±SEM of the percentage of viable cells compared to the control condition of at least three independent experiments. *P<0.05, **P<0.01, ***P<0.001 (unpaired student t test).
(§2) MCA205 mouse sarcoma cell line is cultured at 37° C. under 5% CO2 in RPMI 1640 medium (Life Technologies) in the presence of 1% glutamine, 1% sodium pyruvate, 1% non-essential amino-acids, 1% penicillin/streptomycin and 10% FBS (Life Technologies) under standard conditions. B16F10 mouse melanoma cell line, MRC5 human fibroblast cell line and A375 human melanoma cell line are cultured at 37° C. under 5% CO2 in DMEM medium (Life Technologies) containing 1% glutamine, 1% penicillin/streptomycin and 10% FCS under standard conditions. A549 human lung carcinoma cell line is cultured at 37° C. under 5% CO2 in DMEM/F12+Glutamax I in the presence of 1% Hepes, 1% sodium pyruvate and 10% FBS under standard conditions. Stable MCA205-Globin-SL8-intron cell line are cultured under the same condition as MCA205 cell line with additional 2 mg/ml G418 (geneticin from Life Technologies) for selection. Stable B16F10-Globin-SL8-intron cell line are cultured under the same condition as B16F10 cell line with additional 2 mg/ml G418 (geneticin from Life Technologies) for selection. The SL8/Kb-specific (B3Z) T-cell reporter hybridoma are cultured at 37° C. under 5% CO2 in RPMI 1640 medium (Life Technologies) in the presence of 1% glutamine, 0.1% β-galactosidase, 1% penicillin/streptomycin and 10% FCS under standard conditions.
(§3) MTT assay on MCA205 and B16F10 cell lines treated with 6.25 μM, 15 μM or 25 μM of isoginkgetin. Dare are given as the mean of the percentage of cell viability ±SEM from at least three independent experiments.

B16F10 WT tumor = assay: Tumor challenge, B16F10 WT in immunocompetent C57BL/6 mice; format: in vivo, mouse; conditions: 18 mg/kg intraperitoneally, days 5, 10 and 15 (FIG. 11D)
Procedure: (A) Experimental settings. Growth of (B) sarcoma MCA205 or (C) melanoma B16F10 cells that both stably express the globin-SL8-intron construct or (D) MCA205 Wild Type (WT) or (E) B16F10 WT cells that were subcutaneously inoculated on the flank of immunocompetent C57BL/6 mice injected intraperitoneally with 12 mg/kg or 18 mg/kg of isoginkgetin at days 5, 10 and 15 after inoculation. Tumor size was assessed every 3 to 4 days until reaching the established ethical endpoints. Each line represents the tumor size in area (mm^2) of 6 mice in each group. Size in area (mm^2) of (F) MCA205 globin-SL8-intron, (G) B16F10 globin-SL8-intron, (H) MCA205 WT or (I) B16F10 WT tumors subcutaneously inoculated on the flank of immunodeficient Nu/Nu Nude mice injected intraperitoneally with 18 mg/kg of isoginkgetin at days 5, 10 and 15 after inoculation. Data are presented at the day before the endpoints are reached.
Data are given as mean ±SEM. *P<0.05, **P<0.01, ***P<0.001 (unpaired student t test). […] Tumor size was assessed every 3 to 4 days until reaching the established ethical endpoints. […]
The SL8 peptide has been widely shown to be highly immunogenic in vivo. […] At days 5, 10 and 15 after tumor inoculation, the mice were injected intraperitoneally with a define dose of isoginkgetin, and the tumor growth was monitored (FIG. 9A). […]

[2] = test system: H2-K^b molecules at the cell surface of MCA205 cells; assay: Flow cytometry of H2-K^b expression, MCA205; format: cell-based, mouse
Text: (§4) Flow cytometry analyses of H2-K^b expression on MCA205 and B16F10 cells treated with (A) isoginkgetin. Flow cytometry analyses of transiently expressed H2-K^b expression on A375, A549 and MRC5 cells treated with (B) isoginkgetin.

[3] = test system: H2-K^b molecules at the cell surface of B16F10 cells; assay: Flow cytometry of H2-K^b expression, B16F10; format: cell-based, mouse
Text: as §4

[4] = MTT assay on A375 cell line; format: cell-based; conditions: human, A375 melanoma cells, read-out: % cell viability (±SEM)
Procedure: (§5) MCA205 mouse sarcoma cell line is cultured at 37° C. under 5% CO2 in RPMI 1640 medium (Life Technologies) in the presence of 1% glutamine, 1% sodium pyruvate, 1% non-essential amino-acids, 1% penicillin/streptomycin and 10% FBS (Life Technologies) under standard conditions. B16F10 mouse melanoma cell line, MRC5 human fibroblast cell line and A375 human melanoma cell line are cultured at 37° C. under 5% CO2 in DMEM medium (Life Technologies) containing 1% glutamine, 1% penicillin/streptomycin and 10% FCS under standard conditions. A549 human lung carcinoma cell line is cultured at 37° C. under 5% CO2 in DMEM/F12+Glutamax I in the presence of 1% Hepes, 1% sodium pyruvate and 10% FBS under standard conditions. Stable MCA205-Globin-SL8-intron cell line are cultured under the same condition as MCA205 cell line with additional 2 mg/ml G418 (geneticin from Life Technologies) for selection. Stable B16F10-Globin-SL8-intron cell line are cultured under the same condition as B16F10 cell line with additional 2 mg/ml G418 (geneticin from Life Technologies) for selection. The SL8/Kb-specific (B3Z) T-cell reporter hybridoma are cultured at 37° C. under 5% CO2 in RPMI 1640 medium (Life Technologies) in the presence of 1% glutamine, 0.1% β-galactosidase, 1% penicillin/streptomycin and 10% FCS under standard conditions. […]

[5] = MTT assay on MRC5 cell line; format: cell-based; conditions: human, MRC5 fibroblast cells, read-out: % cell viability (±SEM)
Procedure: as §5

[6] = MTT assay on B16F10 cell line; format: cell-based, mouse; conditions: mouse, B16F10 melanoma cells, MTT, read-out: % cell viability (±SEM)
Procedure: as §1, §2, §3

[7] = MTT viability, mouse cell lines (text summary of table 2); format: cell-based; conditions: MCA205 sarcoma and B16F10 melanoma cells, MCA205 and B16F10, 6.25-25 μM, read-out: cell viability at efficient doses
Procedure: In parallel, the same experiment was performed on the mouse melanoma B16F10 and sarcoma MCA205 cell lines that were transiently expressing the Globin-SL8-intron construct. […] Efficient doses lead to cell viability over 50% in these cell lines (table 2).
as §3

SMILES	toxicity (MTT, percentage of viable cells compared to control) [1]	tumor growth (B16F10 WT tumor)	expression of the H2-K^b molecules at the cell surface [2]	expression of the H2-K^b molecules at the cell surface [3]	viability at 2.5 µM ([4]; A375, 2.5 μM) [%]	viability at 6.25 µM ([4]; A375, 6.25 μM) [%]	viability at 2.5 µM ([5]; MRC5, 2.5 μM) [%]	viability at 6.25 µM ([5]; MRC5, 6.25 μM) [%]	viability at 6.25 µM ([6]; B16F10, 6.25 μM) [%]	viability at 15 µM ([6]; B16F10, 15 μM) [%]	viability at 25 µM ([6]; B16F10, 25 μM) [%]	viability [7] [%]
COc1ccc(-c2cc(=O)c3c(OC)cc(OP(=O)([O-])[O-])c(-c4cc(-c5cc(=O)c6c(OC)cc(OP(=O)([O-])[O-])cc6o5)ccc4OC)c3o2)cc1.[Na+].[Na+].[Na+].[Na+] [IM2P2]	no toxicity	did not impact tumor growth	is not affected	is not affected								
COc1ccc(-c2cc(=O)c3c(O)cc(O)c(-c4cc(-c5cc(=O)c6c(O)cc(O)cc6o5)ccc4OC)c3o2)cc1 [Isoginkgetin, isoginkgetin]					100	100	100	100	86.5	58.6	51.2	> 50
